Measurements reported in ChEMBL document CHEMBL4715708, “Discovery of 8-Amino-imidazo[1,5-a]pyrazines as Reversible BTK Inhibitors for the Treatment of Rheumatoid Arthritis” (ACS Med Chem Lett, 2016).

Tests used:
[1] = Clearance in rat at 2 mg/kg, iv; type: ADME, organism-based; settings: in vivo
[2] = Volume of distribution at steady state in rat at 2 mg/kg, iv; type: ADME, organism-based; settings: in vivo, read-out: Vdss
[3] = Dose normalized AUC in rat at 2 mg/kg, iv; type: ADME, organism-based; settings: in vivo
[4] = Half life in rat at 2 mg/kg, iv; type: ADME, organism-based; settings: in vivo
[5] = Cmax in rat at 5 mg/kg, po; type: ADME, organism-based; parameters: route oral, dose 5 mg/kg; settings: in vivo
[6] = Tmax in rat at 5 mg/kg, po; type: ADME, organism-based; settings: in vivo
[7] = Oral bioavailability in rat at 5 mg/kg; type: ADME, organism-based; settings: in vivo
[8] = Clearance in dog at 1 mg/kg, iv; type: ADME, organism-based, Canis lupus familiaris; settings: in vivo
[9] = Volume of distribution at steady state in dog at 1 mg/kg, iv; type: ADME, organism-based, Canis lupus familiaris; settings: in vivo, read-out: Vdss
[10] = Dose normalized AUC in dog at 1 mg/kg, iv; type: ADME, organism-based, Canis lupus familiaris; settings: in vivo
[11] = Half life in dog at 1 mg/kg, iv; type: ADME, organism-based, Canis lupus familiaris; settings: in vivo
[12] = Cmax in dog at 2 mg/kg, po; type: ADME, organism-based, Canis lupus familiaris; parameters: route oral, dose 2 mg/kg; settings: in vivo
[13] = Tmax in dog at 2 mg/kg, po; type: ADME, organism-based, Canis lupus familiaris; settings: in vivo
[14] = Oral bioavailability in dog at 2 mg/kg; type: ADME, organism-based, Canis lupus familiaris; settings: in vivo
[15] = target: Tyrosine-protein kinase Blk (Homo sapiens, UniProt P51451); test: Inhibition of human BLK
[16] = target: T1, Cytoplasmic tyrosine-protein kinase BMX (Homo sapiens, UniProt P51813); test: Inhibition of human BMX
T1 sequence (P51813 whole entry): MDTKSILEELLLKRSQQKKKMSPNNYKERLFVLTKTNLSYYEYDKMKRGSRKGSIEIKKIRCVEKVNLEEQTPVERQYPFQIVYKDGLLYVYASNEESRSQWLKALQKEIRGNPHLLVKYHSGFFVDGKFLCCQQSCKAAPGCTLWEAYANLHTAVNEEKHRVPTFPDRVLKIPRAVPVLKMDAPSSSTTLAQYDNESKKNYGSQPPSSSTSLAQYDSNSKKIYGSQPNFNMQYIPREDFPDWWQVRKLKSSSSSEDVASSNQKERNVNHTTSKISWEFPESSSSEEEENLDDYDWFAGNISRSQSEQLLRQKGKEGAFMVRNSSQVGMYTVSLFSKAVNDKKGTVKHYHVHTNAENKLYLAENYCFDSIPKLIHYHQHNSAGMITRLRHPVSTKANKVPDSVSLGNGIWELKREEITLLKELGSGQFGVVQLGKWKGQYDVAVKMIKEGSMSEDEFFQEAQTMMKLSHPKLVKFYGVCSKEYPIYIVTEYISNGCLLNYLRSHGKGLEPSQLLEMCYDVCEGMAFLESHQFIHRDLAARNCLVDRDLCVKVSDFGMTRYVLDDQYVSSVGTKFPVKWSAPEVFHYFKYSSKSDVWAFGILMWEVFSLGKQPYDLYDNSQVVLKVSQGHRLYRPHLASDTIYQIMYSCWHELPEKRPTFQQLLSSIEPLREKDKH

[17] = target: Tyrosine-protein kinase CSK (Homo sapiens, UniProt P41240); test: Inhibition of human CSK
Tyrosine-protein kinase CSK, sequence (P41240 whole entry): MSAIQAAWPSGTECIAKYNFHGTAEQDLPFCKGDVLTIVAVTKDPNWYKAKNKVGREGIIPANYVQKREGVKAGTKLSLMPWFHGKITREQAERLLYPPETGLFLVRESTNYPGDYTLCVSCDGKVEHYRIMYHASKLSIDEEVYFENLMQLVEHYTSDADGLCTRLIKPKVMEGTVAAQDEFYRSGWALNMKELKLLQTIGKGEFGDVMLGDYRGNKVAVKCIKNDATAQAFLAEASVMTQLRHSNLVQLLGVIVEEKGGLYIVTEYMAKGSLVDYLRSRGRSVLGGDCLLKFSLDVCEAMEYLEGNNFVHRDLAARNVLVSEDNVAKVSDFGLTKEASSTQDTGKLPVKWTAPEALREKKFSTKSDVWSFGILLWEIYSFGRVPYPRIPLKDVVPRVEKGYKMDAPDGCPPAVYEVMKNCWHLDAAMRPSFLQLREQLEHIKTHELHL

[18] = target: Receptor tyrosine-protein kinase erbB-4 (Homo sapiens, UniProt Q15303); test: Inhibition of human ERBB4
[19] = target: Tyrosine-protein kinase Fgr (Homo sapiens, UniProt P09769); test: Inhibition of human FGR
Tyrosine-protein kinase Fgr, sequence (P09769 whole entry): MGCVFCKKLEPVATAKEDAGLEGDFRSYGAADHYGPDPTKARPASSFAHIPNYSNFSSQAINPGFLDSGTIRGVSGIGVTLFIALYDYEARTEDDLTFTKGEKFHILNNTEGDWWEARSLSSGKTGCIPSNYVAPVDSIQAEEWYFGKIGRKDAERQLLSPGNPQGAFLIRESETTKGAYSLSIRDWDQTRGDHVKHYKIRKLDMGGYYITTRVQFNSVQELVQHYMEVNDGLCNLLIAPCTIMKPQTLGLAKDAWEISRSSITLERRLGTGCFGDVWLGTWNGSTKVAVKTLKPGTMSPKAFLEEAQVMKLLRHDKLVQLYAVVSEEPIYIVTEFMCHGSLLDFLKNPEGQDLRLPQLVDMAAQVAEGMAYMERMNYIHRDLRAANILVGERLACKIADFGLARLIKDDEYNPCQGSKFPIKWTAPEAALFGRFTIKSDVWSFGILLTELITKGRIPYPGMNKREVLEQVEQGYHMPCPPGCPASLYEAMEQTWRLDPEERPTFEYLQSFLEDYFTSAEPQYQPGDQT

[20] = target: Tyrosine-protein kinase FRK (Homo sapiens, UniProt P42685); test: Inhibition of human FRK
Tyrosine-protein kinase FRK, sequence (P42685 whole entry): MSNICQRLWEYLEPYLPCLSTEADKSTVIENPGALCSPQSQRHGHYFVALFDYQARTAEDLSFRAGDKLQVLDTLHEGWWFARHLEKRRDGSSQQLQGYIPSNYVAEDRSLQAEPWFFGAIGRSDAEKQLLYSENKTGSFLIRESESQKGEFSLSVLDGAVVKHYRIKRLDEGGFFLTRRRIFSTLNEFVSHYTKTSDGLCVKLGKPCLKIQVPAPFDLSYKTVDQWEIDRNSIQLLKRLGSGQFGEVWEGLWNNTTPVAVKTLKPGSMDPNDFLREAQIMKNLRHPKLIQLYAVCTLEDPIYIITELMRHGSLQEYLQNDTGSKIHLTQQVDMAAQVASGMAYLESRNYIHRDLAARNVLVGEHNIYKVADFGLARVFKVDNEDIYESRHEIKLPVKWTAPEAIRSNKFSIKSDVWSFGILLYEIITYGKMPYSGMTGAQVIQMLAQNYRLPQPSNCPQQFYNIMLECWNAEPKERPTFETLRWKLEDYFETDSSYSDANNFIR

[21] = target: Tyrosine-protein kinase Fyn (Homo sapiens, UniProt P06241); test: Inhibition of human FYN
Tyrosine-protein kinase Fyn, sequence (P06241 whole entry): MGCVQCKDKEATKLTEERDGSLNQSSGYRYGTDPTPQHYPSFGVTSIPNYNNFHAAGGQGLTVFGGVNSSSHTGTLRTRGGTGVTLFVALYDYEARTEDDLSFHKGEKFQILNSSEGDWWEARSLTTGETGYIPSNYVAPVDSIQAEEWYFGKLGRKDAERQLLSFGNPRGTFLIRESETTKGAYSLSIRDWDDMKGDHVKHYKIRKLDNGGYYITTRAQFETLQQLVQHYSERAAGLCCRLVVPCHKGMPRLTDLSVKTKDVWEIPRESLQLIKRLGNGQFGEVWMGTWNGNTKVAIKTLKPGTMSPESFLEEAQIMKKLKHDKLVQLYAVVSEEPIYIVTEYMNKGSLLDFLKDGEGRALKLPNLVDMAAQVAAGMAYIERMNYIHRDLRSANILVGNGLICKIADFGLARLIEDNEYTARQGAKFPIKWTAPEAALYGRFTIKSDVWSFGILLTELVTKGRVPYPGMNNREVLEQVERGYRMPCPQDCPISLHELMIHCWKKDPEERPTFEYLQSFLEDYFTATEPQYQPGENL

[22] = target: T2, Tyrosine-protein kinase ITK/TSK (Homo sapiens, UniProt Q08881); test: Inhibition of human ITK
T2 sequence (Q08881 whole entry): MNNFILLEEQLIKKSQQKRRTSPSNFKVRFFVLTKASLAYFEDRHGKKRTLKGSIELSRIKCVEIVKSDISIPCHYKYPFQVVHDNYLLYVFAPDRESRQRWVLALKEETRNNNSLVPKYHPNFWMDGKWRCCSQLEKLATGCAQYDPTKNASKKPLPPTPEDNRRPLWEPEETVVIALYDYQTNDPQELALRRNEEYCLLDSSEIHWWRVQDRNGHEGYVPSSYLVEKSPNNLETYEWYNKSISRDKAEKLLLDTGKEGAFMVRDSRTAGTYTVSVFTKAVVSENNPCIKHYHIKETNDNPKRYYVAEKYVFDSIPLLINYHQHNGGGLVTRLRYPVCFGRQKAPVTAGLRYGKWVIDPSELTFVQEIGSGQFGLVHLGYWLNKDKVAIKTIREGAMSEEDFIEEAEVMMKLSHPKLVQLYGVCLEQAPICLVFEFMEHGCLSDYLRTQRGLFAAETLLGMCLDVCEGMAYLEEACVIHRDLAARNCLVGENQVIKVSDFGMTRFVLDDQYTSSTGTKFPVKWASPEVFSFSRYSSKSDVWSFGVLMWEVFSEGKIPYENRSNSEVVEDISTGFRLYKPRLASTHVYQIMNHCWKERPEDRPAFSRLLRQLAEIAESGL

[23] = target: Tyrosine-protein kinase Lck (Homo sapiens, UniProt P06239); test: Inhibition of human LCK
Tyrosine-protein kinase Lck, sequence (P06239 whole entry): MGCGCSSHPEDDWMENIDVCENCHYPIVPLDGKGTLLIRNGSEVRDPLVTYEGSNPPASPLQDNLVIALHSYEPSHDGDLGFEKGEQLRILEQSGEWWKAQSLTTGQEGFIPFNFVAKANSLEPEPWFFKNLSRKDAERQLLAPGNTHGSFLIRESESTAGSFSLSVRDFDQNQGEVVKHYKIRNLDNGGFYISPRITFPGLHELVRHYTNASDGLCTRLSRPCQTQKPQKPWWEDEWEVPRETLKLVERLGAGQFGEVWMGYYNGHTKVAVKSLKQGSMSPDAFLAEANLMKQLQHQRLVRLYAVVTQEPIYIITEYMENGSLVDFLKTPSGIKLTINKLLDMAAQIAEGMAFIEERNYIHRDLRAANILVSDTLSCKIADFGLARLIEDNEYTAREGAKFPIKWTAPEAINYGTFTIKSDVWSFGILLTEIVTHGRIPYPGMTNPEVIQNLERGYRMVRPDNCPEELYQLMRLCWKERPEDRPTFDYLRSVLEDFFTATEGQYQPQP

[24] = target: Tyrosine-protein kinase Lyn (Homo sapiens, UniProt P07948); test: Inhibition of human LYNB
Tyrosine-protein kinase Lyn, sequence (P07948 whole entry): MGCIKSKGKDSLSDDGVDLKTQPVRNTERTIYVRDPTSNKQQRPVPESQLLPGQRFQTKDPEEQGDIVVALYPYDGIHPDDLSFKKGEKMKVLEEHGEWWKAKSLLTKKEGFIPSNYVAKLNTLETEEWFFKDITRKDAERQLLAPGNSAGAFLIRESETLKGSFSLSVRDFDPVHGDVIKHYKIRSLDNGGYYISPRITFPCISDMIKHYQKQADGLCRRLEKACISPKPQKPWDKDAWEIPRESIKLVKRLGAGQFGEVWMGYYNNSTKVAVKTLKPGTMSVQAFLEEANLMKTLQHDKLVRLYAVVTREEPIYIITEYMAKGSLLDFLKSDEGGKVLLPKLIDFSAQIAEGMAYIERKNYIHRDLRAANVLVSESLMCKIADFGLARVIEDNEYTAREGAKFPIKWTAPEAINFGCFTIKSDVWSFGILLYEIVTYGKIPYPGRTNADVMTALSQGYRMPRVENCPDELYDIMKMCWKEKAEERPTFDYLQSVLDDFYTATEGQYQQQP

[25] = target: Protein-tyrosine kinase 6 (Homo sapiens, UniProt Q13882); test: Inhibition of human PTK6
[26] = target: Proto-oncogene tyrosine-protein kinase Src (Homo sapiens, UniProt P12931); test: Inhibition of human SRC
Proto-oncogene tyrosine-protein kinase Src, sequence (P12931 2-536 limits assumed): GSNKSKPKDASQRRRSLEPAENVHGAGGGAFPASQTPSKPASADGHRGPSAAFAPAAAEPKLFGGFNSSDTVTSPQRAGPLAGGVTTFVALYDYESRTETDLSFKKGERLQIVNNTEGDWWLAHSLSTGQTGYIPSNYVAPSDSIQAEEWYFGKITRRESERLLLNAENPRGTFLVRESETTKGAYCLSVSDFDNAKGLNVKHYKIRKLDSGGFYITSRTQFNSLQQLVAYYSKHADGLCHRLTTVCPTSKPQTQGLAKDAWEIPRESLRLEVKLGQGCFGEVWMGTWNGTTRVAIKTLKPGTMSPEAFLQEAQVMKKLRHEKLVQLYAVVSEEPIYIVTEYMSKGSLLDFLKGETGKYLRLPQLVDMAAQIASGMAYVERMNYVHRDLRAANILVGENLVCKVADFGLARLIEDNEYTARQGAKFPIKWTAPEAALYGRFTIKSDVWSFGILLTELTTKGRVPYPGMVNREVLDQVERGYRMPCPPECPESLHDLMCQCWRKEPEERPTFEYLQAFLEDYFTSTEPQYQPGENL

[27] = target: Tyrosine-protein kinase Srms (Homo sapiens, UniProt Q9H3Y6); test: Inhibition of human SRMS
Tyrosine-protein kinase Srms, sequence (Q9H3Y6 whole entry): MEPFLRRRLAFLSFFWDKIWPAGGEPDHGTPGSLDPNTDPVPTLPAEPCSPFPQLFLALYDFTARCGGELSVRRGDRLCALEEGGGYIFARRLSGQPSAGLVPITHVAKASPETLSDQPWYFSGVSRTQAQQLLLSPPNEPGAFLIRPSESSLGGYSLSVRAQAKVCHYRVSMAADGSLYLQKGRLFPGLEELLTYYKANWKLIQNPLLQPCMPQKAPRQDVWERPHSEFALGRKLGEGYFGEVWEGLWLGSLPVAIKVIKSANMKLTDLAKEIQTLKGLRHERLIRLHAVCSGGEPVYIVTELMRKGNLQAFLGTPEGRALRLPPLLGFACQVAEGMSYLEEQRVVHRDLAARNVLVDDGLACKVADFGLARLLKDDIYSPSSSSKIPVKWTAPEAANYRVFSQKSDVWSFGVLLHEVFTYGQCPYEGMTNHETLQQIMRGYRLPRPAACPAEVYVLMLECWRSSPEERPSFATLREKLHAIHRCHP

[28] = target: T3, Tyrosine-protein kinase Tec (Homo sapiens, UniProt P42680); test: Inhibition of human TEC
T3 sequence (P42680 whole entry): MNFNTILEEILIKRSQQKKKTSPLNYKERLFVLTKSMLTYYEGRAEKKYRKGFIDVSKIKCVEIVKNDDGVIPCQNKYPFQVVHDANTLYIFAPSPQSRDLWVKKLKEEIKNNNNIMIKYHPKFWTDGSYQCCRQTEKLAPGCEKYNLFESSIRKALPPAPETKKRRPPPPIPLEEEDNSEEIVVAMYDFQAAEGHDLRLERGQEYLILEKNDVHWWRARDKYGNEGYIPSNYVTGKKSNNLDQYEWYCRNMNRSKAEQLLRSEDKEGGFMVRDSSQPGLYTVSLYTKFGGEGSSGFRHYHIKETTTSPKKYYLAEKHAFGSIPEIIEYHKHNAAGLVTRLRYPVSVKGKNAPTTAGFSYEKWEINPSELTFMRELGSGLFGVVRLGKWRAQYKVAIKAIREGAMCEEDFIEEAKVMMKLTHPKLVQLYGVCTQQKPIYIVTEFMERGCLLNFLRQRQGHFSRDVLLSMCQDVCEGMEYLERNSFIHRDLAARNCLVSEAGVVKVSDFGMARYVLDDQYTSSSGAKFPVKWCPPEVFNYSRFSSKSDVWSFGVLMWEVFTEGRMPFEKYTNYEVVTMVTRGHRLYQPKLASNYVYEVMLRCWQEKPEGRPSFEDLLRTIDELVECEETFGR

[29] = target: T4, Tyrosine-protein kinase TXK (Homo sapiens, UniProt P42681); test: Inhibition of human TXK
T4 sequence (P42681 whole entry): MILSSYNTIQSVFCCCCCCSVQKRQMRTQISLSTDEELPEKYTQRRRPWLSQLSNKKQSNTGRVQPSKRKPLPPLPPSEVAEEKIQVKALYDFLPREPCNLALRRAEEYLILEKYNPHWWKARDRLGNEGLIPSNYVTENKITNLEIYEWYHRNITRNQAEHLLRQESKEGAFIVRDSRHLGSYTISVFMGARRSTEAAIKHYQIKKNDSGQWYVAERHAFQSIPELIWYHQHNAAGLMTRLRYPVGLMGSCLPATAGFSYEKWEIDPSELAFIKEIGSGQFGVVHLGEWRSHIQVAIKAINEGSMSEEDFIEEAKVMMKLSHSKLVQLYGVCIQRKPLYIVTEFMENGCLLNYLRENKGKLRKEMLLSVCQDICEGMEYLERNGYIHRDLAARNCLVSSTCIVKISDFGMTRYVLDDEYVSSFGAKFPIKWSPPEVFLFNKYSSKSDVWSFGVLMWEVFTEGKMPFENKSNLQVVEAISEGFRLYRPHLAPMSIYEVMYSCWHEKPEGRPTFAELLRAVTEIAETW

[30] = target: Tyrosine-protein kinase Yes (Homo sapiens, UniProt P07947); test: Inhibition of human YES1
Tyrosine-protein kinase Yes, sequence (P07947 whole entry): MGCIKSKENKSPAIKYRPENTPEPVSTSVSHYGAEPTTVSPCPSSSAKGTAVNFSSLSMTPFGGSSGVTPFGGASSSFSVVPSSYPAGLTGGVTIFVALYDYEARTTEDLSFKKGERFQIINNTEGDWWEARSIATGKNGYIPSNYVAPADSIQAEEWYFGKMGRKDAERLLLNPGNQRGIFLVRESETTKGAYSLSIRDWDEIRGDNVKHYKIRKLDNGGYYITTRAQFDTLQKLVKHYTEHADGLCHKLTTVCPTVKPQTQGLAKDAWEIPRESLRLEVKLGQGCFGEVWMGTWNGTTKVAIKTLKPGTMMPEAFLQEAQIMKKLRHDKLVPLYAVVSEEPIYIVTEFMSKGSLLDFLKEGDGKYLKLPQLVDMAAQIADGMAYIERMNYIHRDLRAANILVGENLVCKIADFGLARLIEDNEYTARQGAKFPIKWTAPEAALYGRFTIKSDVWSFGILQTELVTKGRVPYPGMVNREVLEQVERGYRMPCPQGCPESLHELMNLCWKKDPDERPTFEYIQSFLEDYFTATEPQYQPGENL

[31] = Clearance in rat at 4 mg/kg, iv; type: ADME, organism-based; settings: in vivo
[32] = Volume of distribution at steady state in rat at 4 mg/kg, iv; type: ADME, organism-based; settings: in vivo, read-out: Vdss
[33] = Dose normalized AUC in rat at 4 mg/kg, iv; type: ADME, organism-based; settings: in vivo
[34] = Half life in rat at 4 mg/kg, iv; type: ADME, organism-based; settings: in vivo
[35] = Cmax in rat at 10 mg/kg, po; type: ADME, organism-based; parameters: route oral, dose 10 mg/kg; settings: in vivo
[36] = Tmax in rat at 10 mg/kg, po; type: ADME, organism-based; settings: in vivo
[37] = Oral bioavailability in rat at 10 mg/kg; type: ADME, organism-based; settings: in vivo

Structure (SMILES) | clearance [1] | Vd [2] | AUC/dose [3] | half-life [4] | Cmax [5] | Tmax [6] | bioavailability [7] | clearance [8] | Vd [9] | AUC/dose [10] | half-life [11] | Cmax [12] | Tmax [13] | bioavailability [14] | also measured
C[C@H]1CC[C@@H](c2nc(-c3ccc(C(=O)Nc4cc(C(F)(F)F)ccn4)cc3F)c3c(N)nccn23)CN1C(=O)C1CC1 | 18 mL/min/kg | 2.6 L/kg | 1.6 µM·h | 1.8 h | 400 nM | 1 h | 22% | 1.5 mL/min/kg | 0.65 L/kg | 20 µM·h | 6.5 h | 3900 nM | 2 h | 82% | –
CC1(C(=O)N2CCC[C@@H](c3nc(-c4ccc(C(=O)Nc5cc(C(F)(F)F)ccn5)cc4F)c4c(N)nccn34)C2)COC1 | 24 mL/min/kg | 1.7 L/kg | 1.1 µM·h | 1.4 h | 1000 nM | 0.5 h | 77% | 11 mL/min/kg | 2 L/kg | 3 µM·h | 4.1 h | 780 nM | 1 h | 60% | IC50 [15]: 42 nM; IC50 [16]: 20 nM; IC50 [17]: 253 nM; IC50 [18]: 81 nM; IC50 [19]: 55 nM; IC50 [20]: 187 nM; IC50 [21]: 322 nM; IC50 [22]: 921 nM; IC50 [23]: 22 nM; IC50 [24]: 184 nM; IC50 [25]: 63 nM; IC50 [26]: 116 nM; IC50 [27]: 24 nM; IC50 [28]: 69 nM; IC50 [29]: 32 nM; IC50 [30]: 43 nM
CC1(C(=O)N2CCC[C@@H](c3nc(-c4ccc(C(=O)Nc5cc(C(F)(F)F)ccn5)cc4)c4c(N)nccn34)C2)COC1 | – | – | – | – | – | – | – | – | – | – | – | – | – | – | clearance [31]: 6.3 mL/min/kg; Vd [32]: 0.59 L/kg; AUC/dose [33]: 5.1 µM·h; half-life [34]: 1.2 h; Cmax [35]: 4800 nM; Tmax [36]: 2.2 h; bioavailability [37]: 84%
